# Laboratory results reported in the supplement of paper PMC11061612.
# Key:
# Assay in all cases: Bliss excess, mean over the matrix (fraction); higher = more synergy
# [1] = test system: NCI-H196 (Small Cell Lung Carcinoma)
# Method in brief: (§1)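 Cell lines grown in DMEM/F12 or RPMI with 10% FBS were plated in 1536-well plates and held 24 hours at 37°C, 5% CO2 before 72 hours of exposure to two-drug dose matrices, with DMSO typically at 0.2%. CellTiter-Glo 2.0 luminescence gave viability, which was converted to inhibition. Vehicle wells were set to 0 and blank wells to 1. Combination Emax is the second-highest inhibition in the matrix, and Bliss excess is the observed combination effect minus the expected EA + EB − EA·EB, where EA and EB are the single-agent effects.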
# [2] = test system: Caov-3 (Ovarian Carcinoma)
# Method in brief: as §1
# [3] = test system: OCI-AML5 (Acute Myeloid Leukemia)
# Method in brief: as §1
# [4] = test system: NCI-H1563 (Lung Adenocarcinoma)
# Method in brief: as §1
# [5] = test system: NCI-H1623 (Lung Adenocarcinoma)
# Method in brief: as §1
# [6] = test system: FLO-1 (Esophageal Adenocarcinoma)
# Method in brief: as §1
# [7] = test system: RMG-I (Ovarian Carcinoma)
# Method in brief: as §1
# [8] = test system: NKM-1 (Acute Myeloid Leukemia)
# Method in brief: as §1
# [9] = test system: 786-0 (Kidney Carcinoma)
# Method in brief: as §1
# [10] = test system: HuO-3N1 (Osteosarcoma)
# Method in brief: as §1
# [11] = test system: LOUCY (T-Lymphoblastic Leukemia)
# Method in brief: as §1
# [12] = test system: SW684 (Other Solid Carcinomas)
# Method in brief: as §1
# [13] = test system: CML-T1 (Chronic Myelogenous Leukemia)
# Method in brief: as §1
# [14] = test system: JHH-1 (Hepatocellular Carcinoma)
# Method in brief: as §1
# [15] = test system: CHL-1 (Melanoma)
# Method in brief: as §1
# [16] = test system: Calu-6 (Non-Small Cell Lung Carcinoma)
# Method in brief: as §1
# [17] = test system: SK-MM-2 (Plasma Cell Myeloma)
# Method in brief: as §1
# [18] = test system: LAMA-84 (Chronic Myelogenous Leukemia)
# Method in brief: as §1
# [19] = test system: PANC-02-03 (Pancreatic Carcinoma)
# Method in brief: as §1
# [20] = test system: RL95-2 (Endometrial Carcinoma)
# Method in brief: as §1
SMILES,Bliss excess [1],Bliss excess [2],Bliss excess [3],Bliss excess [4],Bliss excess [5],Bliss excess [6],Bliss excess [7],Bliss excess [8],Bliss excess [9],Bliss excess [10],Bliss excess [11],Bliss excess [12],Bliss excess [13],Bliss excess [14],Bliss excess [15],Bliss excess [16],Bliss excess [17],Bliss excess [18],Bliss excess [19],Bliss excess [20]
"CN(CCO)CC[C@H](CSc1ccccc1)Nc1ccc(S(=O)(=O)NC(=O)c2ccc(N3CCC([C@@H](O)c4ccccc4-c4ccc(Cl)cc4)CC3)cc2)cc1S(=O)(=O)C(F)(F)F [AZD4320] + CCN(CCO)CCCOc1ccc2c(Nc3cc(CC(=O)Nc4cccc(F)c4)[nH]n3)ncnc2c1 [AZD2811] (first compound max 1 µM, 7x7, partner max 1 µM)",-0.0513,0.0419,-0.004,-0.0002,-0.0045,0.0895,-0.0297,0.0403,-0.0374,-0.0051,-0.0011,-0.0717,0.0624,0.0925,0.133,-0.0023,-0.0113,0.0319,-0.0246,0.119
"Cc1c2c(nn1C)CSCc1cc(n(C)n1)CSc1cc(c3ccccc3c1)OCCCc1c(C(=O)O)n(C)c3c-2c(Cl)ccc13 [AZD5991] + CN(C)CCCOc1ccc(-c2ccc3ncc4c(c3c2)n(C2CCOCC2)c(=O)n4C)cn1 [AZD0156] (first compound max 1 µM, 7x7, partner max 1 µM)",-0.0207,0.0036,0.0075,-0.009,-0.015,-0.0135,0.0092,-0.152,-0.0109,-0.0067,0.0428,-0.0222,0.0208,0.0048,0.0218,0.0052,0.0254,-0.0051,-0.0241,-0.0252
"C=CCn1c(=O)c2cnc(Nc3ccc(N4CCN(C)CC4)cc3)nc2n1-c1cccc(C(C)(C)O)n1 [AZD1775] + C[C@@H]1COCCN1C2=NC(=NC(=C2)C3(CC3)[S@](=N)(=O)C)C4=C5C=CNC5=NC=C4 [AZD6738] (first compound max 1 µM, partner max 10 µM)",-0.0093,-0.025,0.005,-0.0303,0.0057,-0.0531,-0.0161,0.0023,0.109,0.0162,0.025,-0.0662,0.0296,0.0194,-0.0012,–,-0.0211,0.0054,-0.0701,0.0402
"CC1(C)CCC(CN2CCN(c3ccc(C(=O)NS(=O)(=O)c4ccc(NCC5CCOCC5)c([N+](=O)[O-])c4)c(Oc4cnc5[nH]ccc5c4)c3)CC2)=C(c2ccc(Cl)cc2)C1 [Venetoclax] + CCN(CCO)CCCOc1ccc2c(Nc3cc(CC(=O)Nc4cccc(F)c4)[nH]n3)ncnc2c1 [AZD2811] (first compound max 1 µM, 7x7, partner max 1 µM)",-0.0463,-0.0544,-0.0195,0.0151,-0.0165,-0.019,-0.055,0.0697,-0.0469,0.0175,-0.0278,-0.0043,0.104,-0.0166,0.0784,0.0331,-0.0099,-0.0036,-0.0283,0.0814
"CC1(C)CCC(CN2CCN(c3ccc(C(=O)NS(=O)(=O)c4ccc(NCC5CCOCC5)c([N+](=O)[O-])c4)c(Oc4cnc5[nH]ccc5c4)c3)CC2)=C(c2ccc(Cl)cc2)C1 [Venetoclax] + COc1cc(Nc2ncc3c(n2)-c2ccc(Cl)cc2C(c2c(F)cccc2OC)=NC3)ccc1C(=O)O [Alisertib] (first compound max 1 µM, 7x7, partner max 10 µM)",-0.0371,-0.119,0.17,-0.0523,0.045,-0.0379,-0.0513,0.0087,-0.0114,-0.0154,0.0646,-0.0688,0.0154,0.0308,0.238,-0.0071,0.0207,-0.0447,-0.0527,0.0892
"COc1cccc(OCCCN)c1-c1cc(Nc2cnc(C#N)cn2)n[nH]1 [Prexasertib] + C[C@@H]1COCCN1C2=NC(=NC(=C2)C3(CC3)[S@](=N)(=O)C)C4=C5C=CNC5=NC=C4 [AZD6738] (first compound max 1 µM, 7x7, partner max 10 µM)",-0.049,-0.0647,-0.0205,-0.0878,-0.0745,-0.0233,0.0108,-0.0583,-0.0219,0.0204,-0.0009,-0.018,-0.0309,0.0009,0.0139,-0.0852,-0.0348,-0.0052,0.0434,-0.0487
"CN(CCO)CC[C@H](CSc1ccccc1)Nc1ccc(S(=O)(=O)NC(=O)c2ccc(N3CCC([C@@H](O)c4ccccc4-c4ccc(Cl)cc4)CC3)cc2)cc1S(=O)(=O)C(F)(F)F [AZD4320] + Cc1cc2ncnn2cc1Nc1ncc2c(n1)n(C1CCOCC1)c(=O)n2C [AZD7648] (first compound max 1 µM, 7x7, partner max 10 µM)",-0.0395,-0.0199,0.0193,-0.0322,-0.0206,-0.0358,-0.0676,0.0153,-0.0428,0.0015,0.0365,-0.0628,0.0044,-0.0576,-0.0391,-0.0522,-0.0268,-0.0161,-0.0568,-0.0186
"COc1cccc(OCCCN)c1-c1cc(Nc2cnc(C#N)cn2)n[nH]1 [Prexasertib] + CN(C)CCCOc1ccc(-c2ccc3ncc4c(c3c2)n(C2CCOCC2)c(=O)n4C)cn1 [AZD0156] (first compound max 1 µM, 7x7, partner max 1 µM)",-0.0547,-0.0134,0.0781,-0.0416,-0.0206,-0.056,-0.04,-0.0165,-0.0576,0.0092,0.0036,-0.0432,-0.0328,0.0785,0.0059,-0.0507,-0.0392,-0.0219,-0.0009,-0.0364
"Cc1c2c(nn1C)CSCc1cc(n(C)n1)CSc1cc(c3ccccc3c1)OCCCc1c(C(=O)O)n(C)c3c-2c(Cl)ccc13 [AZD5991] + CCN(CCO)CCCOc1ccc2c(Nc3cc(CC(=O)Nc4cccc(F)c4)[nH]n3)ncnc2c1 [AZD2811] (first compound max 1 µM, 7x7, partner max 1 µM)",-0.029,0.0236,-0.0165,-0.0248,0.0711,0.0347,0.0126,0.0291,-0.0142,0.0023,-0.0389,-0.069,0.0645,0.0603,0.114,-0.0096,-0.0451,0.128,-0.0029,0.0272
"COc1cccc(OCCCN)c1-c1cc(Nc2cnc(C#N)cn2)n[nH]1 [Prexasertib] + CCc1c2c(nc3ccc(O)cc13)-c1cc3c(c(=O)n1C2)COC(=O)[C@]3(O)CC [SN-38] (first compound max 1 µM, 7x7, partner max 0.3 µM)",0.0391,-0.0539,-0.0197,-0.0111,-0.0364,0.0153,-0.102,-0.0554,-0.0368,-0.0105,0.0103,0.0036,0.0077,-0.11,0.0254,-0.0116,-0.0714,-0.0066,0.0098,0.153
"CC1(C)CCC(CN2CCN(c3ccc(C(=O)NS(=O)(=O)c4ccc(NCC5CCOCC5)c([N+](=O)[O-])c4)c(Oc4cnc5[nH]ccc5c4)c3)CC2)=C(c2ccc(Cl)cc2)C1 [Venetoclax] + CN(C)CCCOc1ccc(-c2ccc3ncc4c(c3c2)n(C2CCOCC2)c(=O)n4C)cn1 [AZD0156] (first compound max 1 µM, 7x7, partner max 1 µM)",-0.0333,-0.0386,-0.0618,-0.0099,-0.0133,-0.113,-0.016,-0.0963,-0.0327,-0.0235,0.0594,-0.0333,0.0232,-0.042,0.0082,0.0071,-0.0129,0.0018,-0.0541,-0.0027
"CCN(CCO)CCCOc1ccc2c(Nc3cc(CC(=O)Nc4cccc(F)c4)[nH]n3)ncnc2c1 [AZD2811] + C=CCn1c(=O)c2cnc(Nc3ccc(N4CCN(C)CC4)cc3)nc2n1-c1cccc(C(C)(C)O)n1 [AZD1775] (first compound max 1 µM, partner max 1 µM)",-0.0371,-0.0603,-0.0295,0.001,0.009,-0.0162,-0.0711,0.0269,-0.0246,-0.0504,-0.019,-0.0454,0.0392,-0.0609,0.0161,-0.0028,-0.0005,0.0026,-0.0628,0.0389
"CC1(C)CCC(CN2CCN(c3ccc(C(=O)NS(=O)(=O)c4ccc(NCC5CCOCC5)c([N+](=O)[O-])c4)c(Oc4cnc5[nH]ccc5c4)c3)CC2)=C(c2ccc(Cl)cc2)C1 [Venetoclax] + C[C@@H]1COCCN1C2=NC(=NC(=C2)C3(CC3)[S@](=N)(=O)C)C4=C5C=CNC5=NC=C4 [AZD6738] (first compound max 1 µM, 7x7, partner max 10 µM)",0.0092,-0.0574,0.0391,0.0131,0.0068,-0.0338,-0.0178,-0.0143,-0.0882,-0.0375,-0.0462,-0.0138,0.0145,-0.0365,0.0493,-0.0261,0.0217,-0.0263,-0.0199,-0.0361
"CC1(C)CCC(CN2CCN(c3ccc(C(=O)NS(=O)(=O)c4ccc(NCC5CCOCC5)c([N+](=O)[O-])c4)c(Oc4cnc5[nH]ccc5c4)c3)CC2)=C(c2ccc(Cl)cc2)C1 [Venetoclax] + C=CCn1c(=O)c2cnc(Nc3ccc(N4CCN(C)CC4)cc3)nc2n1-c1cccc(C(C)(C)O)n1 [AZD1775] (first compound max 1 µM, partner max 1 µM)",-0.0007,0.0265,-0.0397,0.0451,-0.0218,0.0161,-0.0409,-0.0087,-0.0686,-0.0172,0.0193,0.032,0.0106,0.0213,0.0577,-0.0317,0.102,0.0884,-0.0699,0.0277
